Measurements as given in article PMC9424235, “Small molecule-mediated allosteric activation of the base excision repair enzyme 8-oxoguanine DNA glycosylase and its impact on mitochondrial function” (Scientific Reports, 2022).
“And” between values parts separate entries of the source, which are not always exact repeats. Equal entries are not always repeated. One block for each compound: values may come before it.

Assays:
[1] = system: OGG1; set-up: method as in PMID 12592398; conditions: cited from earlier work
[2] = target: human OGG1 (Homo sapiens, UniProt O15527); assay: Fluorescent steady-state kinetic assay of OGG1 activation (initial rates; screening concentration response)
[3] = system: A549 cells; assay: Nuclear DNA damage by γ-H2AX staining; format: cell-based, human
[4] = system: A549 cells; assay: mtDNA damage by long/short chain PCR; format: cell-based, human; conditions: PQ 0.3–3 mM
[5] = system: A549 cells; assay: OGG1 content by imaging; format: cell-based, human; conditions: 0.6 mM PQ, N = 1 in triplicate
[6] = system: A549 cells; assay: DRP1 content by quantitative imaging; format: cell-based, human; conditions: 0.6 mM PQ, 48 h
[7] = system: A549 cells; assay: Measurement of energy metabolites (ATP, ADP); format: cell-based, human
[8] = system: A549 cells; assay: TOM20 immunofluorescence; format: cell-based, human; conditions: 0.3 mM PQ, 48 h
[9] = system: A549 cells; assay: ROS production with CM-H2DCFDA (DCF) imaging; format: cell-based, human; conditions: for EC50: Homo sapiens
[10] = system: A549 cells; assay: DNA ligase III (LIG3) protein content by imaging; format: cell-based, human; conditions: 48 h of PQ at either 0.6 or 1 mM
[11] = system: A549 cells; assay: Mitochondrial membrane integrity (MitoTracker orange texture analysis); format: cell-based, human; conditions: 24 h
[12] = system: A549 cells; assay: Mitochondrial ROS with MitoSOX; format: cell-based, human
[13] = initial rate analysis, random mechanism

Sequence of human OGG1 (O15527 12-345): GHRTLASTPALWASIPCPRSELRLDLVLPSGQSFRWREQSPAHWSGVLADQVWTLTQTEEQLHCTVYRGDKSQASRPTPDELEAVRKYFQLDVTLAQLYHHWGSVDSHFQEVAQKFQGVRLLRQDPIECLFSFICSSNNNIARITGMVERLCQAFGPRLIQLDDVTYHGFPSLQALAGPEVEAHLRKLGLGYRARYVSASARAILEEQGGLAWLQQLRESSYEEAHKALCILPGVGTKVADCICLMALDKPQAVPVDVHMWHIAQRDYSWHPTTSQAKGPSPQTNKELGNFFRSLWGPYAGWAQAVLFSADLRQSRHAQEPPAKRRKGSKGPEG

SMILES: Nc1nc2nc(N)[nH]c2c(=O)[nH]1 [Compound 8-aminoGua, 8-aminoguanine]
acceleration / activation level of AP lyase activity [1]: > 35 fold | substrate turnover [1]: 72%

β value as percent of catalytic activity of OGG1 in the presence of 8-bromoGua [2]: 50% | OGG1 initial rate relative to that in the presence of 200 μM 8-bromoGua ([2]; 200 μM activator, substrate 80 nM): ~ 25% | Km ([2]; initial rate analysis with activator and Substrate A varied, OGG1 10 nM): 0.015 ± 0.003 µM | kcat ([2]; initial rate analysis with activator and Substrate A varied, OGG1 10 nM, random mechanism fit): 0.006 ± 0.001 s⁻¹ and 0.006 ± 1 s⁻¹ | α (coefficient of interaction between activator and substrate) [2, 13]: 1.3 ± 0.4 | β (factor of kcat activation) [2, 13]: 18 ± 3
SMILES: Nc1nc2cc[nH]c2c(=O)[nH]1 [Compound 9-deazaGua, 9-deazaguanine]

SMILES: C[n+]1ccc(-c2cc[n+](C)cc2)cc1.[Cl-].[Cl-] [Paraquat, N, N′-dimethyl-4,4′-bipyridinium dichloride]
rise in γH2AX (nuclear DNA damage) [3]: 2 fold | concentration giving maximal mtDNA damage [4]: 600 µM | increase of OGG1 content above baseline [5]: 88.3% | decline of DRP1 content compared to control [6]: about 24 ± 0.02% | ATP levels ([7]; 24 h with PQ, concentrations not given at the place, listed as PQ): 3.13 ± 0.14 μmol/gm protein and 2.49 ± 0.67 μmol/gm protein and 1.99 ± 0.45 μmol/gm protein | ADP levels ([7]; PQ 3 mM, 48 h, time-course experiment): 68.69 ± 1.47 μmol/gm protein | ATP Average ([7]; paraquat 0.3 mM alone, 48 h): 2.56 µmols/g protein and 2.83 µmols/g protein and 1.89 µmols/g protein | ATP Average ([7]; paraquat 0.6 mM alone, 48 h): 1.43 µmols/g protein and 1.67 µmols/g protein and 1.19 µmols/g protein | ATP Average ([7]; paraquat 1 mM alone, 48 h): 1.47 µmols/g protein and 0.92 µmols/g protein and 1.02 µmols/g protein | ADP Average ([7]; paraquat 3 mM alone, 48 h): 40.48 µmols/g protein and 41.33 µmols/g protein and 53.45 µmols/g protein | ATP Average ([7]; paraquat 3 mM alone, 48 h): 0.96 µmols/g protein and 0.61 µmols/g protein and 0.63 µmols/g protein | ATP Average ([7]; paraquat 3 mM alone, 48 h, listed as PQ): 0.63 ± 0.05 µmols/g protein and 0.96 ± 0.10 µmols/g protein and 0.61 ± 0.09 µmols/g protein | TOM20 immunofluorescence increase above baseline [8]: ~25% | maximum ROS (DCF) over baseline ([9]; 0.6 mM, 48 h): 30 fold | maximum ROS (DCF) over baseline ([9]; 3 mM, 24 h): 30 fold | EC50 ([9]; A549, 24 h): 1600 µM | EC50 ([9]; A549, 48 h): 340 µM | decline of LIG3 levels [10]: about 50% | concentration giving maximum effect on mitochondrial membrane integrity [11]: 3000 µM | maximal mitochondrial ROS signal intensity (MitoSOX) ([12]; 3 mM): 1.75 fold | EC50 ([12]; Homo sapiens, A549, 24 h of exposure): 280 µM
